Assay results published in PMC6479714, “Multiplex Analysis Platform for Endocrine Disruption Prediction Using Zebrafish” (International Journal of Molecular Sciences, 2019).
pEC50: −log10 of the molar value. Values joined by “and” are separate entries in the source; they are usually repeats but may differ in a detail not shown here. Equal values may be shown once. Read-outs that look alike come from different tables or passages of the source.

How the values were obtained:
[1] = system: brain aromatase (cyp19a1b); experiment: cyp19a1b gene expression (qPCR) in exposed zebrafish embryos; format: in vivo, zebrafish (Danio rerio); settings: for LogEC50 (cyp19a1b mRNA): log of EC50 in μM, 48-120 h, our study; for pEC50: zebrafish embryos exposed 48–120 hpf, mRNA by qPCR
[2] = system: cytosolic sulfotransferase 2 family 2 (sult2st3); experiment: sult2st3 gene expression (qPCR) in exposed zebrafish embryos; format: in vivo, zebrafish (Danio rerio); settings: for maximum FI / maximum average overexpression level above controls, sult2st3: exposed 48–120 hpf, times above controls; for pEC50: read-out: EC50 sult2st3
[3] = molecular target: iodothyronine deiodinase 2 (dio2); experiment: dio2 gene expression (qPCR) in exposed zebrafish embryos; format: in vivo, zebrafish (Danio rerio); settings: for pEC50: read-out: EC50 dio2
zebrafish embryos = experiment: acute toxicity test from 48–120 hpf based on the OECD FET test; format: in vivo, zebrafish (Danio rerio); settings: zebrafish embryos exposed 48–120 hpf; for LC50, class symbol: highest concentration set by water solubility
Source text: (§1) Twenty embryos per treatment were exposed to 5 concentrations of compound of interest in a 10× dilution factor from 48–120 hpf, which is the experimental time in which EDCs will be screened posteriorly. Embryos were exposed from 48–120 hpf rather than 0–96 hpf or 0–120 hpf to avoid unspecific toxicity outside of the EDC testing period, which have been chosen on the basis that endocrine pathways, e.g., thyroid metabolism, are not fully functional until 40–55 hpf in zebrafish embryos. Stock solutions of chemicals to be tested were freshly prepared in exposure medium. The highest concentration for each compound was selected according to its water solubility (Table S1). Exposures were performed in glass vessels to assure maximum bioavailability for hydrophobic compounds, and medium was not exchanged during the experiment.

cyp19a1b - fluorescence = settings: 0-96 h, cited from earlier work; for LogEC50 (cyp19a1b - fluorescence): log of EC50 in μM
cyp19a1b - mRNA [4] = settings: cited from earlier work; for LogEC50 (cyp19a1b - mRNA): log of EC50 in μM
vtg - blood [5] = settings: cited from earlier work
[6] = listed physicochemical property, source not given; cited from earlier work
vitellogenin 1 (vtg1) = experiment: vtg1 gene expression (qPCR) in exposed zebrafish embryos; settings: for pEC50: read-out: EC50 vtg1
[7] = system: cytochrome P450 2k22 (cyp2k22); experiment: cyp2k22 gene expression (qPCR) in exposed zebrafish embryos; settings: for pEC50: read-out: EC50 cyp2k22
[8] = acute toxicity test from 48–120 hpf based on the OECD FET test; format: in vivo, zebrafish (Danio rerio); settings: in vivo; zebrafish embryos exposed 48–120 hpf
Source text: as §1

ERE-GFP - fluorescence = settings: 0-120 h, cited from earlier work
vtg1 - mRNA = settings: 0-168 h; ref [10] (supplement list: Chen 2018); cited from earlier work
cyp19a1b - mRNA [9] = settings: 14 days (adults), cited from earlier work
vtg - blood [10] = settings: cited from earlier work; for LogEC50 (vtg - blood): log of EC50 in μM
vtg - mRNA = settings: 14 days (juveniles), cited from earlier work
cyp19a1b - vtg1 mRNA = experiment: estrogenic markers considered together (cyp19a1b - vtg1 mRNA), zebrafish embryos
thyroid peroxidase (tpo) = experiment: tpo gene expression (qPCR) in exposed zebrafish embryos; format: in vivo, zebrafish (Danio rerio); settings: for pEC50: Danio rerio, read-out: EC50 tpo
thyroid receptor α (trα) = experiment: trα gene expression (qPCR) in exposed zebrafish embryos; format: in vivo, zebrafish (Danio rerio); settings: exposed 48–120 hpf
transthyretin (ttr) = experiment: ttr gene expression (qPCR) in exposed zebrafish embryos; format: in vivo, zebrafish (Danio rerio); settings: exposed 48–120 hpf
tpo - mRNA = settings: 48-120 h, ref [32] (supplement list), cited from earlier work
sult2st3 - cyp2k22 mRNA [11] = settings: 96-120 h, ref [31] (supplement list), cited from earlier work
sult2st3 - cyp2k22 mRNA [12] = experiment: androgenic markers considered together (sult2st3 - cyp2k22 mRNA), zebrafish embryos
[13] = zebrafish embryos exposed 48–120 hpf, mRNA by qPCR
[14] = ref [3] (supplement list: Brion 2012)
[15] = log of EC50 in μM, 48-120 h, our study
[16] = * mean of an approximate range, ref [21] (supplement list: Molina 2018)
[17] = log of EC50 in μM, ref [21] (supplement list)
[18] = FUL 1 µM co-exposed with E2 1 µM
[19] = NIL 1 µM co-exposed with TES 1 µM, reaching control levels

## C[C@]12CCC(=O)C=C1CC[C@@H]1[C@@H]2CC[C@@]2(C)[C@H]1CC[C@]2(C)O [17α-MT, 17α-methyltestosterone]
[1]
  LogEC50 (cyp19a1b mRNA): -0.2076
  pEC50: 6.21
[2]
  maximum FI / maximum average overexpression level above controls, sult2st3: 4.64–8.97
[2]; [13]
  pEC50: 7.00
[3]; [13]
  pEC50: 7.05
Zebrafish embryos
  LC50: 90200 nM
cyp19a1b - fluorescence; [14]
  pEC50: 7.40
cyp19a1b - fluorescence; ref [3] (supplement list)
  LogEC50 (cyp19a1b - fluorescence): -1.398
cyp19a1b - mRNA [4]; 0-144h, * mean of an approximate range, ref [28] (supplement list: Trant 2001)
  pEC50: ~6.77
cyp19a1b - mRNA [4]; 0-144h, ref [28] (supplement list)
  LogEC50 (cyp19a1b - mRNA): -0.7696
Vtg - blood [5]; 12 days (adults), ref [30] (supplement list: Ankley 2001), read-out: EC50 (vtg - blood)
  pEC50: 6.18
Vtg - blood [5]; 21 days (adults), * mean of an approximate range, ref [29] (supplement list: Pawlowski 2004), read-out: EC50 (vtg1 - blood)
  pEC50: ~8.70
Vtg - blood [5]; log of EC50 in μM, 12 days (adults), ref [30] (supplement list)
  LogEC50 (vtg - blood): -0.1805
Vtg - blood [5]; log of EC50 in μM, 21 days (adults), ref [29] (supplement list)
  LogEC50 (vtg1 - blood): -2.699
[6]
  Water solubility: 33.90 µg/mL
Vitellogenin 1 (vtg1); [15]
  LogEC50 (vtg1 mRNA): 0.301
Vitellogenin 1 (vtg1); zebrafish embryos exposed 48–120 hpf, mRNA by qPCR (END: downregulation)
  pEC50: 5.70
[7]; [13]
  pEC50: 7.30

## CC(C)(c1ccc(O)cc1)c1ccc(O)cc1 [BPA, bisphenol A]
[1]; Danio rerio
  pEC50: 5.30
[1]
  LogEC50 (cyp19a1b mRNA): 0.6981
[8]
  LC50: 41600 nM
cyp19a1b - fluorescence; * mean of an approximate range, ref [18] (supplement list: Le Fol 2017)
  pEC50: ~5.20
cyp19a1b - fluorescence; ref [2] (supplement list: Petersen 2013)
  pEC50: 5.13
cyp19a1b - fluorescence; [14]
  pEC50: 5.48
cyp19a1b - fluorescence; ref [2] (supplement list)
  LogEC50 (cyp19a1b - fluorescence): 0.8692
cyp19a1b - fluorescence; ref [3] (supplement list)
  LogEC50 (cyp19a1b - fluorescence): 0.5185
cyp19a1b - fluorescence; ref [18] (supplement list)
  LogEC50 (cyp19a1b - fluorescence): 0.7959
cyp19a1b - mRNA [4]; 0-72 h, ref [20] (supplement list: Saeed 2016)
  pEC50: 6.66
cyp19a1b - mRNA [4]; 72-96 h, * mean of an approximate range, ref [5] (supplement list: Chung 2011)
  pEC50: ~5.52
cyp19a1b - mRNA [4]; 0-72 h, ref [20] (supplement list)
  LogEC50 (cyp19a1b - mRNA): -0.6576
cyp19a1b - mRNA [4]; 72-96 h, ref [5] (supplement list)
  LogEC50 (cyp19a1b - mRNA): 0.4771
ERE-GFP - fluorescence; ref [19] (supplement list: Green 2016)
  pEC50: 5.91
ERE-GFP - fluorescence; log of EC50 in μM, ref [19] (supplement list)
  LogEC50 (ERE-GFP - fluorescence): 0.08991
vtg1 - mRNA
  EC50 (vtg1 - mRNA), class symbol: n.e.
cyp19a1b - mRNA [9]; [16]
  pEC50: ~7.62
cyp19a1b - mRNA [9]; [17]
  LogEC50 (cyp19a1b - mRNA): -1.62
Vtg - blood [5]; 43 days (adults), * mean of an approximate range, ref [22] (supplement list: Sohoni 2001), read-out: EC50 (vtg - blood)
  pEC50: ~5.76
Vtg - blood [5]; log of EC50 in μM, 43 days (adults), ref [22] (supplement list)
  LogEC50 (vtg - blood): 0.243
Vtg - blood [10]; 14 days (adults), ref [14] (supplement list: Brian 2005)
  pEC50: 6.19
Vtg - blood [10]; 28 days (juveniles), * mean of an approximate range, ref [13] (supplement list: Van den Belt 2004)
  pEC50: ~5.58
Vtg - blood [10]; 14 days (adults), ref [14] (supplement list)
  LogEC50 (vtg - blood): -0.1871
Vtg - blood [10]; ref [13] (supplement list)
  LogEC50 (vtg - blood): 0.42
Vtg - mRNA; [16]
  pEC50: ~6.62
Vtg - mRNA; [17]
  LogEC50 (vtg - mRNA): -0.6198
Vitellogenin 1 (vtg1); 48-120 h, our study
  EC50 (vtg1 - mRNA), class symbol: n.e.
Vitellogenin 1 (vtg1); exposed 48–120 hpf
  effect on expression of vtg1: did not affect

## CC/C(=C(/CC)c1ccc(O)cc1)c1ccc(O)cc1 [DES, diethylstilbestrol]
[1]; Danio rerio
  pEC50: 8.00
[1]
  LogEC50 (cyp19a1b mRNA): -2
Zebrafish embryos
  LC50, class symbol: -
cyp19a1b - fluorescence; [14]
  pEC50: 11.00
cyp19a1b - fluorescence; ref [3] (supplement list)
  LogEC50 (cyp19a1b - fluorescence): -5
cyp19a1b - mRNA [4]; 2-48 h, * mean of an approximate range, ref [6] (supplement list: Kishida 2001)
  pEC50: ~8.26
cyp19a1b - mRNA [4]; 2-48 h, ref [6] (supplement list)
  LogEC50 (cyp19a1b - mRNA): -2.26

## C[C@]12CC[C@@H]3c4ccc(O)cc4C[C@@H](CCCCCCCCC[S+]([O-])CCCC(F)(F)C(F)(F)F)[C@H]3[C@@H]1CC[C@@H]2O (stereo partly shown) [FUL, fulvestrant]
[1]; [18]
  FI cyp19a1b after co-exposure with antagonist: 57.17
Zebrafish embryos
  LC50, class symbol: -
Vitellogenin 1 (vtg1); [18]
  FI vtg1 after co-exposure with antagonist: 205.50
  rescue effect: decrease of vtg1 compared to single exposure of E2: 47.89%
cyp19a1b - vtg1 mRNA; FUL 10 µM co-exposed with E2
  rescue effects at 10 µM antagonist: no more rescue effects than those observed at 1 µM

## Cn1cc[nH]c1=S [MMI, methimazole]
Thyroid peroxidase (tpo); [13]
  pEC50: 3.40
Thyroid peroxidase (tpo); [15]
  LogEC50 (tpo - mRNA): 2.599
Thyroid receptor α (trα)
  effect on trα expression: None of the other three remaining thyroid markers analyzed were affected
Transthyretin (ttr)
  effect on ttr expression: None of the other three remaining thyroid markers analyzed were affected
[3]; exposed 48–120 hpf
  effect on dio2 expression: None of the other three remaining thyroid markers analyzed were affected
Tpo - mRNA; main text refs 25, 29
  pEC50: 3.31
Tpo - mRNA; log of EC50 in μM
  LogEC50 (tpo - mRNA): 2.688
[6]
  Water solubility: 277500.00 µg/mL

## C[C@]12CC[C@H]3[C@@H](CCC4=CC(=O)CC[C@@H]43)[C@@H]1CC[C@@H]2O [NAN, nandrolone]
[1]; Danio rerio
  pEC50: 6.70
[2]; Danio rerio
  pEC50: 6.89
[2]
  maximum FI / maximum average overexpression level above controls, sult2st3: 4.64–8.97
[3]; Danio rerio
  pEC50: 7.10
[8]
  LC50: 497000 nM
Vitellogenin 1 (vtg1); Danio rerio
  pEC50: 5.76
[7]; Danio rerio
  pEC50: 6.96

## CC1(C)NC(=O)N(c2ccc([N+](=O)[O-])c(C(F)(F)F)c2)C1=O [NIL, nilutamide]
[2]; [19]
  rescue of TES-induced sult2st3 overexpression: totally rescued
[8]
  LC50: 32800 nM
[6]
  Water solubility: 4.19 µg/mL
[7]; [19]
  rescue of TES-induced cyp2k22 overexpression: totally rescued

## C[C@]12CC[C@H]3[C@@H](CCC4=CC(=O)CC[C@@]43C)[C@@H]1CC[C@@H]2O [TES, testosterone]
[2]; Danio rerio
  pEC50: 6.85
[2]
  maximum FI / maximum average overexpression level above controls, sult2st3: 7.33 and 4.64–8.97
Thyroid peroxidase (tpo)
  pEC50: 7.70
cyp19a1b - fluorescence; [14]
  pEC50: 5.99
cyp19a1b - fluorescence; ref [3] (supplement list)
  LogEC50 (cyp19a1b - fluorescence): 0.01284
cyp19a1b - mRNA [4]; 0-72 h, * mean of an approximate range, ref [27] (supplement list: Mouriec 2009)
  pEC50: ~6.00
cyp19a1b - mRNA [4]; 0-72 h, ref [27] (supplement list)
  LogEC50 (cyp19a1b - mRNA): 0
sult2st3 - cyp2k22 mRNA [11]; log of EC50 in μM
  LogEC50 (sult2st3 - cyp2k22 mRNA): -1.222
sult2st3 - cyp2k22 mRNA [11]; read-out: EC50 (sult2st3 - cyp2k22 mRNA)
  pEC50: 7.22
Vitellogenin 1 (vtg1); Danio rerio
  pEC50: 5.84
[7]; Danio rerio
  pEC50: 6.13
[7]; exposed 48–120 hpf, times above controls
  maximum average overexpression level above controls, cyp2k22: 4.01
cyp19a1b - vtg1 mRNA; Danio rerio, read-out: EC50 (cyp19a1b - vtg1 mRNA)
  pEC50: 5.95
cyp19a1b - vtg1 mRNA; [15]
  LogEC50 (cyp19a1b - vtg1 mRNA): 0.04532
sult2st3 - cyp2k22 mRNA [12]; Danio rerio, read-out: EC50 (sult2st3 - cyp2k22 mRNA)
  pEC50: 6.36
sult2st3 - cyp2k22 mRNA [12]; [15]
  LogEC50 (sult2st3 - cyp2k22 mRNA): -0.3565

## C=CC1(C)OC(=O)N(c2cc(Cl)cc(Cl)c2)C1=O (stereo not shown) [VIN, vinclozolin]
Zebrafish embryos
  LC50, class symbol: -
